Calls of active or inactive are those of the source. The rule behind the calls is not given here.
How the values were obtained:
A549 = assay: Cytotoxicity against human A549 cells assessed as inhibition of cell growth incubated for 72 hrs by CCK-8 assay; assay type: functional, cell-based; settings: A549, 72 h
Caco-2 = assay: Cytotoxicity against human Caco-2 cells assessed as inhibition of cell growth incubated for 72 hrs by CCK-8 assay; assay type: functional, cell-based; settings: Caco-2, 72 h
HepG2 = assay: Cytotoxicity against human HepG2 cells assessed as inhibition of cell growth incubated for 72 hrs by CCK-8 assay; assay type: functional, cell-based; settings: HepG2, 72 h
MDA-MB-231 = assay: Cytotoxicity against human MDA-MB-231 cells assessed as inhibition of cell growth incubated for 72 hrs by CCK-8 assay; assay type: functional, cell-based; settings: MDA-MB-231, 72 h
Aspergillus cristatus = assay: Antimicrobial activity against Aspergillus cristatus CB10002 incubated for 24 hrs by absorbance based analysis; assay type: functional, organism-based
Aspergillus flavus = assay: Antimicrobial activity against Aspergillus flavus AS3.3950 incubated for 24 hrs by absorbance based analysis; assay type: functional, organism-based
Saccharomyces cerevisiae = assay: Antimicrobial activity against Saccharomyces cerevisiae AS2.399 incubated for 24 hrs by absorbance based analysis; assay type: functional, organism-based
Staphylococcus aureus = assay: Antimicrobial activity against Staphylococcus aureus ATCC 29213 incubated for 24 hrs by absorbance based analysis; assay type: functional, organism-based
Escherichia coli = assay: Antimicrobial activity against Escherichia coli DH5alpha incubated for 24 hrs by absorbance based analysis; assay type: functional, organism-based
Aspergillus ochraceus = assay: Antimicrobial activity against Aspergillus ochraceus AS3.3876 incubated for 24 hrs by absorbance based analysis; assay type: functional, organism-based

Row | SMILES | IC50 (A549) [µM] | IC50 (Caco-2) [µM] | IC50 (HepG2) [µM] | IC50 (MDA-MB-231) [µM] | Activity (Aspergillus cristatus) | Activity (Aspergillus flavus) | Activity (Saccharomyces cerevisiae) | Activity (Staphylococcus aureus) | Activity (Escherichia coli) | Activity (Aspergillus ochraceus)
1 | CCCC/C=C\CCCCCCCC(=O)O [MYRISTOLEIC ACID] | 270 | 270 |  |  |  |  |  |  |  | 
2 | CCCCCCCCCCCCC(=O)O [TRIDECANOATE] | 250 | 280 |  |  |  |  |  |  |  | 
3 | C=CCCCCCCCCCCC(=O)O | 120 | 140 |  |  |  |  |  |  |  | 
4 | Cc1ccccc1/C=C/CCC(=O)O | 64 | > 1000 | 740 | 190 | inactive | inactive | inactive | inactive | inactive | inactive
5 | Cc1ccccc1/C=C/CCCCCCCCCCC(=O)O | 0.35 | 4.6 | 2.2 | 0.45 | inactive | inactive | inactive | inactive | inactive | inactive
6 | CCCCCCCCCCCCCC(=O)O [MYRISTIC ACID] | 200 | > 1000 |  |  |  |  |  |  |  | 

Source: ChEMBL document CHEMBL5325480, “Discovery and Biosynthetic Studies of a Highly Reduced Cinnamoyl Lipid, Tripmycin A, from an Endophytic Streptomyces sp” (J Nat Prod, 2023)
